The values below come from patent publication US20140134690A1, “MICROBES AND METHODS FOR PRODUCING 1-PROPANOL” (University of Georgia Research Foundation, Inc., priority 2012, published 2014).

Experiment in all cases: Methylglyoxal synthase assay
Assay [1] deals with T1, Bacillus subtilis 168 methylglyoxal synthase (mgsA), wild type (Bacillus subtilis, UniProt P42980).
T1 sequence (P42980 1-137): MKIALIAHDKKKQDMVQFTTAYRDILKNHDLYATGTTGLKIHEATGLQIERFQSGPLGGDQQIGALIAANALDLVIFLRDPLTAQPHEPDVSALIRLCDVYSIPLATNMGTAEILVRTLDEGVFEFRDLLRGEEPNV
It counts as biochemical, B. subtilis. The source says: (§1) 1,2-Propanediol pathway branches from glycolysis and competes for the intermediate dihydroxyacetone phosphate, with the glycolytic pathway. […] We amplified the mgsA genes from the microorganisms: C. acetobutylicum (ATCC#824), B. subtilis 168, C. difficile R20291, E. coli MG1655, T. thermophilus HB27, K. pneumoniae MGH78578, P. fluorescens Pf-5, and R. eutropha H16 respectively. These genes were cloned and expressed in wild type E. coli BW25113 using eight plasmids pRJ1-pRJ8. Each gene was under the control of the IPTG-inducible pLlacO1 promoter. Using dihydroxyacetone-phosphate as the substrate, we successfully detected the functional expression of all mgsA genes in vitro, where the specific activities varied from 0.0052 U/mg to 0.1242 U/mg (Table 1). […] Without the over-expression of mgsA gene, we also detected the native expression of E. coli mgsA, which gave a specific activity of only 0.0008 U/mg, much lower than that of any over-expression.
(§2) Using the primers listed in Table 5, the mgsA genes were PCR amplified from the genomic DNA of C. acetobutylicum (ATCC824), B. subtilis 168, Clostridium difficile R20291, E. coli MG1655, Thermus thermophilus HB27, K. pneumoniae MGH78578, Pseudomonas fluorescens Pf-5, and Ralstonia eutropha H16 respectively. […]
(§3) The assay was carried out using a two-step procedure. […] The samples were diluted 10 times before measuring the absorbance at 550 nm.

Assay [2] deals with T2, Clostridium acetobutylicum (ATCC 824) methylglyoxal synthase (mgsA), wild type (Clostridium acetobutylicum, UniProt Q97IN6).
T2 sequence (Q97IN6 1-145): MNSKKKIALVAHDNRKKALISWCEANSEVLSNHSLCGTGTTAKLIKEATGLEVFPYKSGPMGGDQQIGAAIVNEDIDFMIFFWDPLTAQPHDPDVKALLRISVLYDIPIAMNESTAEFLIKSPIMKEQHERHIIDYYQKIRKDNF
It counts as biochemical, C. acetobutylicum. The following applies: substrate dihydroxyacetone phosphate 0.15-1.5 mM; crude extract; pH 7.0; 30° C.
Text: as §1, §2, §3

Assay [3] has as its target Clostridium difficile R20291 methylglyoxal synthase (mgsA), wild type (Clostridioides difficile, UniProt A0A9R0BJ64). The class given is biochemical, C. difficile. The following applies: substrate dihydroxyacetone phosphate 0.15-1.5 mM; crude extract; pH 7.0; 30° C.
Text: as §1, §2, §3

Assay [4] deals with T3, Thermus thermophilus HB27 methylglyoxal synthase (mgsA), wild type (Thermus thermophilus, UniProt Q72HP3).
T3 sequence (Q72HP3 1-126): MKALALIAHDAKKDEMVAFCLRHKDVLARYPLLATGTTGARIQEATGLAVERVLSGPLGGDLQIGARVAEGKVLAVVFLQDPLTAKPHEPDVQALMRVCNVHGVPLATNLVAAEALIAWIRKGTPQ
The class given is biochemical, T. thermophilus. The following applies: substrate dihydroxyacetone phosphate 0.15-1.5 mM; crude extract; pH 7.0; 30° C.
Text: as §1, §2, §3

Assay [5] has as its target Klebsiella pneumoniae MGH78578 methylglyoxal synthase (mgsA), wild type (Klebsiella pneumoniae, UniProt A6T757). The class given is biochemical, K. pneumoniae. The following applies: substrate dihydroxyacetone phosphate 0.15-1.5 mM; crude extract; pH 7.0; 30° C.
Text: as §1, §2, §3

Assay [6] has as its target T4, Pseudomonas fluorescens Pf-5 methylglyoxal synthase (mgsA), wild type (Pseudomonas protegens, UniProt Q4K7S5).
T4 sequence (Q4K7S5 1-154): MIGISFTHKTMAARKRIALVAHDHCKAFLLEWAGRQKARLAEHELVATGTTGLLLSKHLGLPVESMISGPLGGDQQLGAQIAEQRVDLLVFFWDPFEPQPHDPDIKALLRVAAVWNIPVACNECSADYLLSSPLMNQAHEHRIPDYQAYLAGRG
The class given is biochemical, P. fluorescens. The following applies: substrate dihydroxyacetone phosphate 0.15-1.5 mM; crude extract; pH 7.0; 30° C.
Text: as §1, §2, §3

Assay [7] deals with T5, Ralstonia eutropha H16 methylglyoxal synthase (mgsA), wild type (Cupriavidus necator, UniProt Q0KD43).
T5 sequence (Q0KD43 1-132): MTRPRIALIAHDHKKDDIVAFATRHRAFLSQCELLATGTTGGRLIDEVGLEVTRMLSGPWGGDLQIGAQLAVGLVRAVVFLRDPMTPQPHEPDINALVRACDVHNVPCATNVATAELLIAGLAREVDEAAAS
The class given is biochemical, R. eutropha. The conditions noted are these: substrate dihydroxyacetone phosphate 0.15-1.5 mM; crude extract; pH 7.0; 30° C.
Text: as §1, §2, §3

Assay [8] deals with E. coli MG1655 methylglyoxal synthase (mgsA), wild type (Escherichia coli, UniProt P0A731). The class given is biochemical. The following applies: substrate dihydroxyacetone phosphate 0.15-1.5 mM; crude extract; pH 7.0; 30° C.
Text: as §1, §2, §3

E. coli MG1655 methylglyoxal synthase (mgsA), wild type, sequence (P0A731 whole entry): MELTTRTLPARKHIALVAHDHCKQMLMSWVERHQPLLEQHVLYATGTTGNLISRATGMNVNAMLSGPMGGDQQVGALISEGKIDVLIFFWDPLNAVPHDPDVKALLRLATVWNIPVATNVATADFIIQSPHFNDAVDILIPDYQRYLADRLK
Klebsiella pneumoniae MGH78578 methylglyoxal synthase (mgsA), wild type, sequence (A6T757 6-157): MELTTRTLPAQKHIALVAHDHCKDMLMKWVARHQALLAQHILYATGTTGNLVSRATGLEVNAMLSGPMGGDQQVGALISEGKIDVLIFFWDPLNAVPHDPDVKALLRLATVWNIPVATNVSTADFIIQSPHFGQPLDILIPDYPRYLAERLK
Clostridium difficile R20291 methylglyoxal synthase (mgsA), wild type, sequence (A0A9R0BJ64 entry or part of it): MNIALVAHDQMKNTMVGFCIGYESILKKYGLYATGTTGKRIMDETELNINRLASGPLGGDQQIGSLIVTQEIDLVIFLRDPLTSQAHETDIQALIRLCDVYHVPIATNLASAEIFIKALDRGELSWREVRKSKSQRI

On to `O=C(CO)COP(=O)(O)O` [dihydroxyacetone phosphate], for which the “Specific Activity/Km” value in assay [1] (substrate dihydroxyacetone phosphate 0.15-1.5 mM, crude extract, pH 7.0, 30° C.) amounted to 0.1186 U/mg/mM; in assay [2], 0.0697 U/mg/mM; in assay [3] it was 0.0415 U/mg/mM; in assay [4] it was 0.0076 U/mg/mM; in assay [5], 0.0058 U/mg/mM; in assay [6], 0.0085 U/mg/mM. The “Specific Activity/Km” value in assay [7] was 0.0074 U/mg/mM; in assay [8], 0.0876 U/mg/mM. Besides, the “ratio of specific activity/Km” value in assay [1] (substrate dihydroxyacetone-phosphate) stood at 0.1186.
